The text below walks through data of US9969753B2, “BCR-ABL diploid inhibitor, synthesizing method therefor, and uses thereof” (CHENGDU UNIVERSITY, priority 2014, dated 2018).

pIC50: −log10 of the molar value.

Data set [1] deals with c-Abl tyrosine kinase (Homo sapiens, UniProt P00519). Description: Mobility Shift Assay, inhibition of kinase Abl in vitro. It counts as biochemical. The conditions noted are these: 10 concentrations 100 μM to 0.005 μM. The procedure: Using the method of mobility Shift Assay, detect activity of the compound BGC with kinase Abl in vitro. The concentration of BGC was diluted from 100 μM with 100% DMSO to 0.005 μM using 3 times dilution method, 10 concentrations in total for detection (2 duplicate) with staurosporine as standard control, set solvent control (10% DMSO) and negative control (EDTA).
Detect activity of different concentrations of the compound BGC on 384 holes reaction plate by enzyme-linked immune response on the inhibition of the kinase Abl, read the conversion rate data on Caliper, and convert the conversion rate to inhibition rate. Percent inhibition=(max−conversion)/(max−min)*100
Wherein, max is the conversion rate of DMSO control; min refers to the conversion rate of enzyme-free control.
According to inhibition rate of the concentrations, calculate the half inhibitory concentration IC50 of the compound BGC to tyrosine kinase Abl.
Using the method of Mobility Shift Assay, detect activity of the compound BP with kinase Abl in vitro. The concentration of BP was diluted from 100 μM with 100% DMSO to 0.005 μM using 3 times dilution method, 10 concentrations in total for detection (2 duplicate) with staurosporine as standard control, set solvent control (10% DMSO) and negative control (EDTA).
Detect activity of different concentrations of the compound BP on 384 holes reaction plate by enzyme-linked immune response on the inhibition of the kinase Abl, read the conversion rate data on Caliper, and convert the conversion rate to inhibition rate. Percent inhibition=(max−conversion)/(max−min)*100
Wherein, max is the conversion rate of DMSO control, min refers to the conversion rate of enzyme-free control.
According to inhibition rate of the concentrations, calculate the half inhibitory concentration IC50 of the compound BP to tyrosine kinase c-Abl. […]
Detect activity of different concentrations of the compound BDB on 384 holes reaction plate by enzyme-linked immune response on the inhibition of the kinase Abl, read the conversion rate data on Caliper, and convert the conversion rate to inhibition rate. […]

Data set [2] relates to KBM5 (human wild type Bcr-Abl) cells. Nature of the data set: KBM5 tumor growth inhibition test in vitro (ATP method). The note with it: 72 hours incubation, read-out: IC50, cytotoxicity to KBM5 cells. It counts as cell-based. The procedure:
(§1) Using ATP method to determine the cell toxicity of compound BGC of the present invention. Adjust the KBM5 cells to a suitable cell density. 140 ul cell suspensions inoculated each hole on 96-well plate. The vaccination density of each species cell is: 2000-6000; then the cell culture plate is placed in the incubator for 24 hours so that it is attached on the wall holes. Using 3 times dilution method to prepare the solution of BGC compound with different concentrations, and add them into the correspond holes on 96-well plate with vaccination in advance, 10 μL of each hole, and its final concentrations are as follows: 100 μM, 33.3 μM, 11.1 μM, 3.70 μM, 1.23 μM, 0.41 μM, 0.14 μM, 0.046 μM, 0.015 μM. Duplicate 3 times of each concentration. After 72 hours incubation in 37° C. incubator, detect the cell proliferation of each hole with ATP method, and calculate the drug concentration to median lethal concentration IC50 of KBM5 cells.
as §1, with “BP” for “BGC”, “KBM5 and KBM5R” for “KBM5”, “method” for “method,”
Using ATP method to determine the cell toxicity of compound BDB of the present invention. Adjust the KBM5 and KBM5R cells to a suitable cell density. 140 ul cell suspensions inoculated each hole on 96-well plate. […]

Data set [3] deals with KBM5R (Bcr-Abl T315I mutation) cells. Description: KBM5R tumor growth inhibition test in vitro (ATP method). It is filed as cell-based. The conditions noted are these: Homo sapiens, 72 hours incubation, read-out: IC50, cytotoxicity to KBM5R cells. As for the experimental part:
as §1, with “BP” for “BGC”, “KBM5 and KBM5R” for “KBM5”, “method” for “method,”
Using ATP method to determine the cell toxicity of compound BDB of the present invention. Adjust the KBM5 and KBM5R cells to a suitable cell density. 140 ul cell suspensions inoculated each hole on 96-well plate. The vaccination density of each species cell is: 2000-6000; then the cell culture plate is placed in the incubator for 24 hours so that it is attached on the wall holes. […]

Data set [4] has as its system KBM5 (Bcr-Abl positive) cell subcutaneous implanted tumor. Nature of the data set: Leukemia subcutaneous xenograft growth inhibition test, KBM5. It counts as in vivo, C57BL/6(Es-1^c) nude mice. The note with it: dosed once a day for two weeks, tumor volume; for inhibitory effect compared with Imatinib in KBM5 subcutaneous tumor model: positive control 160 mg/Kg Imatinib. The text has this:
According to the test results of the growth inhibition in vitro, assess inhibitory effect of the BGC to transplant subcutaneously in C57BL/6(Es-1^c) nude mice with human leukemia KBM5 cells growth.
Study tumor growth if it can be inhibited, slowed or cured. Twice a week or every other day, use a vernier caliper to measure the tumor size. The calculation formula of tumor volume: V=0.5a×b^2, a, b respectively represent the long and short radius of the tumor.
(§2) Data analysis: T test is used for the comparison between the two groups; one-way ANOVA is used between three or more groups. If there is a significant difference of f value, multiple comparisons should be used additional to ANOVA analysis. Two-way ANOVA is used to analyze potential synergies of combined drug group. All data analysis use SPSS 17.0; p<0.05 is considered with a significant difference.
According to the test results of the growth inhibition in vitro, select the minimum IC50 of the compound BP of the present invention, assess inhibitory effect of the BP to transplant subcutaneously in C57BL/6(Es-1^c) nude mice with human leukemia KBM5 and KBM5R cells growth.
According to the test results of the growth inhibition in vitro, select the minimum IC50 of the compound BDB of the present invention, assess inhibitory effect of the BDB to transplant subcutaneously in C57BL/6(Es-1^c) nude mice with human leukemia KBM5 and KBM5R cells growth.

The test system of data set [5] is KBM5R (Bcr-Abl T315I mutation) cell subcutaneous implanted tumor. Description: Leukemia subcutaneous xenograft growth inhibition test, KBM5R. It is filed as in vivo, C57BL/6(Es-1^c) nude mice. The note with it: dosed once a day for two weeks, tumor volume; Imatinib 160 mg/Kg.
From the text: Twice a week or every other day, use a vernier caliper to measure the tumor size. The calculation formula of tumor volume: V=0.5a×b^2, a, b respectively represent the long and short radius of the tumor.
as §2

Data set [6] can be described thus: Preliminary pharmacokinetic study, single intravenous dosage. It counts as in vivo, female C57BL/6(Es-1^c) nude mice. The note with it: female, C57BL/6(Es-1^c) nude, mouse, whole blood; intravenous 1 mg/kg, mice, non-compartmental model.
Method: Experiment methods and procedures are as follows: female C57BL/6(Es-1^c) nude mice, weight 18-25 g, age 6-8 weeks, other, 3 female C57BL/6(Es-1^c) nude mice for blank samples, prepare for the standard curve for analysis. Intravenous dosage 1 mg/kg, delivery volume 5 mL/kg. Intravenous injection drug solution: DMSO:Solutol HS15:Saline=5:5:90, v/v/v. […] Female C57BL/6(Es-1^c) nude mice after intravenous injection dosage collect about 20 μL bloods from the mouse tail vein at 0.25 h, 2 h, 8 h and 24 h, use K2EDTA anticoagulant. Use steamed water to dilute the blood sample in accordance with volume in 3 times and store the diluted blood sample at −70° C. for analysis.
Data analysis: use WinNonlin (version 6.2) software, based on non-compartmental model to calculate the pharmacokinetic parameters.
Experiment methods and procedures are as follows: female C57BL/6(Es-1^c) nude mice, weight 18-25 g, age 6-8 weeks, other, 3 female C57BL/6(Es-1^c) nude mice for blank samples, prepare for the standard curve for analysis. Intravenous dosage 1 mg/kg, delivery volume 5 mL/kg. Intravenous injection drug solution: DMSO:Solutol HS15:Saline=5:5:90, v/v/v. […] Female C57BL/6(Es-1^c) nude mice after intravenous injection dosage collect about 20 μL blood from the mouse tail vein at 0.25h, 2h, 8h and 24 h, use K2EDTA anticoagulant. Use steamed water to dilute the blood sample in accordance with volume in 3 times and store the diluted blood sample at −70° C. for analysis.
Experiment methods and procedures are as follows: female C57BL/6(Es-1^c) nude mice, weight 18-25 g, age 6-8 weeks, other, 3 female C57BL/6(Es-1^c) nude mice for blank samples, prepare for the standard curve for analysis. Intravenous dosage 1 mg/kg, delivery volume 5 mL/kg.

Chain of c-Abl tyrosine kinase (P00519 whole entry): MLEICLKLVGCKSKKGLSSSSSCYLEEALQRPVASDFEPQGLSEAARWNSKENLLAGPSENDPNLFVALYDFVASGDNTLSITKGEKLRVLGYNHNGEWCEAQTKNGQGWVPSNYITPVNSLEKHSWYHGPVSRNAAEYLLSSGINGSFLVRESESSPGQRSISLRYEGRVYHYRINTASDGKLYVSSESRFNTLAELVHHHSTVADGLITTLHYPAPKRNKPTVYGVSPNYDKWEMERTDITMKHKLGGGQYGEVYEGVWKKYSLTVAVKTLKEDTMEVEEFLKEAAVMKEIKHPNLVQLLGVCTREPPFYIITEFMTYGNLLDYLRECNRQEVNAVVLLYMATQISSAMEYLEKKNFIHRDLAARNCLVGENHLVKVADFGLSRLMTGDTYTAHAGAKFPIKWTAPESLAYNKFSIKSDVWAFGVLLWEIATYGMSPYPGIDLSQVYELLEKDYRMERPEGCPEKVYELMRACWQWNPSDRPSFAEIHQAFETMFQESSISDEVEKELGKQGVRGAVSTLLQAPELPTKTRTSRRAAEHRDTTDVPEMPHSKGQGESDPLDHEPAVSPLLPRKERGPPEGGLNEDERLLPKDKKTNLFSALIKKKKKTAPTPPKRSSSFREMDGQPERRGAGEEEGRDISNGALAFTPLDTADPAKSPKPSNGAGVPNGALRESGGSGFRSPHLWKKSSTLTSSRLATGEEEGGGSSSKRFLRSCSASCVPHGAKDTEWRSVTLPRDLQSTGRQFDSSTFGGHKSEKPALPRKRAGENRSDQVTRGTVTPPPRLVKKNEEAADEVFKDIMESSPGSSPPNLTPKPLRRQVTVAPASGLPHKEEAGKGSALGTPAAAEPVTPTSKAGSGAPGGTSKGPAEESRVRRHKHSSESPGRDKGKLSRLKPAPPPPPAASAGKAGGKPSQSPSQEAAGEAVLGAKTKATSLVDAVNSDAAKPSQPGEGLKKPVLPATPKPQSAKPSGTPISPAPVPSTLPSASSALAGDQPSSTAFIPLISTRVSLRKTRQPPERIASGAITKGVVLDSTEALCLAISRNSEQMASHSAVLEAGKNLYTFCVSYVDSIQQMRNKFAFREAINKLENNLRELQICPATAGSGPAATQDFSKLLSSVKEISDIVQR

Broadly, the pIC50 is the negative decadic logarithm of the IC50, by convention in mol/L. As usually defined, the half-life is the time in which the quantity being followed falls by half. A higher half-life goes with slow decline. As to `CO[C@H](C(=O)N1Cc2[nH]nc(NC(=O)c3ccc(CN4CCN(CCC(=O)NCCCOCCOCCOCCCNC(=O)CCCC(=O)NCCCOCCOCCOCCCNC(=O)CCN5CCN(Cc6ccc(C(=O)Nc7n[nH]c8c7CN(C(=O)[C@H](OC)c7ccccc7)C8)cc6)CC5)CC4)cc3)c2C1)c1ccccc1` [compound BDB], the pIC50 was 7.30 in data set [1], 5.15 in data set [2] and 5.05 in data set [3]. Moreover, in data set [4], the “anti-tumor efficacy in KBM5 subcutaneous tumor model” value is recorded as “has anti-tumor efficacy”. Moreover, the “inhibitory effect compared with Imatinib in KBM5 subcutaneous tumor model” value (from here on “inhibitory effect compared with Imatinib”) in data set [4] is on record as “same inhibitory effect with a dosage of 80 mg/kg as Imatinib of 160 mg/kg”. For the same compound, in data set [5], the “anti-tumor efficacy in KBM5R subcutaneous tumor model” value is on record as “has anti-tumor efficacy”. For the same compound, the half-life in data set [6] is 3.8 h.
For `Cc1ccc(C(=O)Nc2ccc(CN3CCN(CCC(=O)NCCCOCCOCCOCCCNC(=O)CCCC(=O)NCCCOCCOCCOCCCNC(=O)CCN4CCN(Cc5ccc(NC(=O)c6ccc(C)c(C#Cc7cnc8cccnn78)c6)cc5C(F)(F)F)CC4)CC3)c(C(F)(F)F)c2)cc1C#Cc1cnc2cccnn12` [compound BP], the negative logarithm of the IC50 (pIC50) in data set [1] was 8.00; in data set [2], 5.70; in data set [3], 5.30. Also, the “anti-tumor efficacy in KBM5 subcutaneous tumor model” value in data set [4] is recorded as “has anti-tumor efficacy”. Besides, in data set [4], the “inhibitory effect compared with Imatinib” value was “same inhibitory effect with a dosage of 80 mg/kg as Imatinib of 160 mg/kg”. For the same compound, the “anti-tumor efficacy in KBM5R subcutaneous tumor model” value in data set [5] is “has anti-tumor efficacy”. In data set [6], this compound showed a half-life of 3.5 h.
`Cc1ccc(NC(=O)c2ccc(CN3CCN(CCC(=O)NCCCOCCOCCOCCCNC(=O)CCCC(=O)NCCCOCCOCCOCCCNC(=O)CCN4CCN(Cc5ccc(C(=O)Nc6ccc(C)c(Nc7nccc(-c8cccnc8)n7)c6)cc5)CC4)CC3)cc2)cc1Nc1nccc(-c2cccnc2)n1` [compound BGC]: the pIC50 in data set [1] was 7.70. For the same compound, in data set [2], the negative logarithm of the IC50 (pIC50) is 5.05. Also, in data set [4], the “anti-tumor efficacy in KBM5 subcutaneous tumor model” value is given as “has anti-tumor efficacy” and the “inhibitory effect compared with Imatinib” value is listed as “same inhibitory effect with a dosage of 350 mg/kg as Imatinib of 160 mg/kg”. The half-life in data set [6] is 3.5 h.
